Source: the OligoGym collection
Values joined by “and” are separate entries in the source; they are usually repeats but may differ in a detail not shown here. Equal values may be shown once. After the bases stand the sugars from the 5' end (letter, count) and the backbone: PS all phosphorothioate, else s phosphorothioate and o phosphodiester by linkage. Methylation of C is not given here. e = 2'-O-(2-methoxyethyl) (MOE); d = 2'-deoxy (DNA)

Target: DGAT2
Settings: ASO

GGGCACCAGCCCCCAGGTGT (sugars e5 d10 e5, PS)
target mRNA inhibition (HepG2, 0.12 µM): 34%

GGGCAGTCCTTTCCCCTGCA (sugars e5 d10 e5, PS)
target mRNA inhibition (HepG2, 0.12 µM): 37%

GGGCGAAACCAATGTATTTC (sugars e5 d10 e5, PS)
target mRNA inhibition (HepG2, 0.12 µM): 24%

GGGCTAATACCTACCTCACC (sugars e5 d10 e5, PS)
target mRNA inhibition (HepG2, 2.5 µM): 53% | target mRNA inhibition (HepG2, 10 µM): 74%

GGGTGTGTTCCAGTCAAACA (sugars e5 d10 e5, PS)
target mRNA inhibition (HepG2, 0.12 µM): 6%

GGTAAGGCCGTATGCCTGGG (sugars e3 d14 e3, PS)
target mRNA inhibition (HepG2, 0.12 µM): 51%

GGTAAGTCCTGATGATCCCC (sugars e5 d10 e5, PS)
target mRNA inhibition (HepG2, 2.5 µM): 86% and 74% | target mRNA inhibition (HepG2, 10 µM): 94% and 95%

GGTATCCAAAGATATAGTTC (sugars e5 d10 e5, PS)
target mRNA inhibition (HepG2, 0.12 µM): 43%

GGTCAGCAGGTTGTGTGTCT (sugars e3 d14 e3, PS)
target mRNA inhibition (HepG2, 0.12 µM): 57%

GGTCTGGGAACAGCAGC (sugars e3 d10 e4, PS)
target mRNA inhibition (HepG2, 2.5 µM): 72% and 76% | target mRNA inhibition (HepG2, 10 µM): 79% and 82%

GGTGACTGCATTCTTGCCAG (sugars e5 d10 e5, PS)
target mRNA inhibition (HepG2, 0.12 µM): 25%

GGTGGTTGCAATGTTGCCAT (sugars e5 d10 e5, PS)
target mRNA inhibition (HepG2, 2.5 µM): 90% and 76% | target mRNA inhibition (HepG2, 10 µM): 93% and 90%

GGTTGCAATGTTGCCATCAT (sugars e5 d10 e5, PS)
target mRNA inhibition (HepG2, 2.5 µM): 91% and 83% | target mRNA inhibition (HepG2, 10 µM): 93% and 91%

GGTTGTGTGTCTTCACCAGC (sugars e2 d13 e5, PS)
target mRNA inhibition (HepG2, 0.12 µM): 68%

GTACTCCCTCAACACAGGCA (sugars e5 d10 e5, PS)
target mRNA inhibition (HepG2, 0.12 µM): 72%

GTCACCTCTTCCAGGAAGAC (sugars e5 d10 e5, PS)
target mRNA inhibition (HepG2, 2.5 µM): 83% and 73% and 76% | target mRNA inhibition (HepG2, 10 µM): 92% and 88%

GTGAAGTTCTATCCCTTGGC (sugars e5 d10 e5, PS)
target mRNA inhibition (HepG2, 2.5 µM): 58% and 71% | target mRNA inhibition (HepG2, 10 µM): 91% and 93%

GTGACCTTGGGATAGTCCCT (sugars e5 d10 e5, PS)
target mRNA inhibition (HepG2, 2.5 µM): 76% and 69% | target mRNA inhibition (HepG2, 10 µM): 92% and 89%

GTGCTCTGTGGGCTCCTCCA (sugars e5 d10 e5, PS)
target mRNA inhibition (HepG2, 2.5 µM): 69% | target mRNA inhibition (HepG2, 10 µM): 83%

GTGGCTCTCTAGATAGGGTG (sugars e5 d10 e5, PS)
target mRNA inhibition (HepG2, 2.5 µM): 68% | target mRNA inhibition (HepG2, 10 µM): 84%

GTGGTTGCAATGTTGCCATC (sugars e5 d10 e5, PS)
target mRNA inhibition (HepG2, 2.5 µM): 83% and 81% and 76% | target mRNA inhibition (HepG2, 10 µM): 92% and 84% and 91%

GTGTAGCCAGGTAAGGCCGT (sugars e5 d10 e5, PS)
target mRNA inhibition (HepG2, 0.12 µM): 50%

GTTAGGATGCTTAACTTCTG (sugars e5 d10 e5, PS)
target mRNA inhibition (HepG2, 2.5 µM): 51% | target mRNA inhibition (HepG2, 10 µM): 86%

GTTCTTGGGCCTAAAGGTGA (sugars e5 d10 e5, PS)
target mRNA inhibition (HepG2, 0.12 µM): 34%

GTTGTGTGTCTTCACCAGCT (sugars e2 d13 e5, PS)
target mRNA inhibition (HepG2, 0.12 µM): 65%

GTTGTGTGTCTTCACCAGCT (sugars e5 d10 e5, PS)
target mRNA inhibition (HepG2, 0.12 µM): 54% and 68%

GTTTACTGTGGCACTAAGCT (sugars e5 d10 e5, PS)
target mRNA inhibition (HepG2, 2.5 µM): 57% | target mRNA inhibition (HepG2, 10 µM): 84%

GTTTCCTTTGAAATCCAATG (sugars e5 d10 e5, PS)
target mRNA inhibition (HepG2, 2.5 µM): 69% and 68% | target mRNA inhibition (HepG2, 10 µM): 90% and 81%

GTTTCGGACCCACTGTGACC (sugars e5 d10 e5, PS)
target mRNA inhibition (HepG2, 0.12 µM): 65%

GTTTTGGGAACTCATGCATT (sugars e5 d10 e5, PS)
target mRNA inhibition (HepG2, 0.12 µM): 50%

TAAATAACCCACAGACACCC (sugars e5 d10 e5, PS)
target mRNA inhibition (HepG2, 0.12 µM): 6%

TAAGCCTCGGTGTCCTCTCC (sugars e5 d10 e5, PS)
target mRNA inhibition (HepG2, 2.5 µM): 90% | target mRNA inhibition (HepG2, 10 µM): 73%

TACTGACTTTTTCCTTCTTA (sugars e5 d10 e5, PS)
target mRNA inhibition (HepG2, 0.12 µM): 39%

TAGCCAGGTAAGGCCGTATG (sugars e3 d14 e3, PS)
target mRNA inhibition (HepG2, 0.12 µM): 49%

TAGTTCCTGGTGGTCAGCAG (sugars e5 d10 e5, PS)
target mRNA inhibition (HepG2, 0.12 µM): 48%

TATAGTTCCTGGTGGTCAGC (sugars e5 d10 e5, PS)
target mRNA inhibition (HepG2, 0.12 µM): 56%

TATCCAAAGATATAGTTCCT (sugars e5 d10 e5, PS)
target mRNA inhibition (HepG2, 0.12 µM): 13%

TATTTCTGGAACTTCTTCTG (sugars e5 d10 e5, PS)
target mRNA inhibition (HepG2, 0.12 µM): 22%

TCACAGAATTATCAGCAGTA (sugars e5 d10 e5, PS)
target mRNA inhibition (HepG2, 2.5 µM): 80% and 61% | target mRNA inhibition (HepG2, 10 µM): 93% and 84%

TCACCAGATTGTTGTGGGAA (sugars e5 d10 e5, PS)
target mRNA inhibition (HepG2, 2.5 µM): 69% | target mRNA inhibition (HepG2, 10 µM): 78%

TCACTTGCTTGAGGTCAGGG (sugars e5 d10 e5, PS)
target mRNA inhibition (HepG2, 2.5 µM): 71% and 79% | target mRNA inhibition (HepG2, 10 µM): 80% and 89%

TCAGAAGGCCAGGCCCCTTC (sugars e5 d10 e5, PS)
target mRNA inhibition (HepG2, 0.12 µM): 20%

TCAGCCACCCAAGAAAAACC (sugars e5 d10 e5, PS)
target mRNA inhibition (HepG2, 0.12 µM): 0%

TCATGAGAAGCTTAGAAGGC (sugars e5 d10 e5, PS)
target mRNA inhibition (HepG2, 0.12 µM): 58%

TCCAAAGATATAGTTCCTGG (sugars e5 d10 e5, PS)
target mRNA inhibition (HepG2, 0.12 µM): 63%

TCCAGACTGGATTTACTGAA (sugars e5 d10 e5, PS)
target mRNA inhibition (HepG2, 0.12 µM): 60%

TCCCAGACCCCTCGCGCGAC (sugars e5 d10 e5, PS)
target mRNA inhibition (HepG2, 0.12 µM): 36%

TCCCCAATATCATACTATCT (sugars e5 d10 e5, PS)
target mRNA inhibition (HepG2, 2.5 µM): 50% | target mRNA inhibition (HepG2, 10 µM): 88%

TCCTATCAGTTAGCAGTGCA (sugars e5 d10 e5, PS)
target mRNA inhibition (HepG2, 2.5 µM): 81% and 68% | target mRNA inhibition (HepG2, 10 µM): 86% and 83%

TCCTGGTGGTCAGCAGGTTG (sugars e5 d10 e5, PS)
target mRNA inhibition (HepG2, 0.12 µM): 58%

TCGGAGGAGAAGAGGCCTCG (sugars e5 d10 e5, PS)
target mRNA inhibition (HepG2, 0.12 µM): 60%

TCTCATCAAGAGATAACAGA (sugars e5 d10 e5, PS)
target mRNA inhibition (HepG2, 0.12 µM): 6%

TCTGGACCCATCGGCCCCAG (sugars e5 d10 e5, PS)
target mRNA inhibition (HepG2, 0.12 µM): 20%

TCTTTGAAAGCAAATAGTCT (sugars e5 d10 e5, PS)
target mRNA inhibition (HepG2, 0.12 µM): 40%

TGACCTGTAGCTGCTTTTCC (sugars e5 d10 e5, PS)
target mRNA inhibition (HepG2, 0.12 µM): 35%

TGAGTAAGGGTATTCTGCTC (sugars e5 d10 e5, PS)
target mRNA inhibition (HepG2, 2.5 µM): 80% and 72% | target mRNA inhibition (HepG2, 10 µM): 93% and 91%

TGAGTAGTCAAAGGTGGCTT (sugars e5 d10 e5, PS)
target mRNA inhibition (HepG2, 0.12 µM): 30%

TGATAGCATTGCCACTCCCA (sugars e5 d10 e5, PS)
target mRNA inhibition (HepG2, 0.12 µM): 64%

TGATCTCATCAAGAGATAAC (sugars e5 d10 e5, PS)
target mRNA inhibition (HepG2, 0.12 µM): 17%

TGATTCTTACCTGCAATGAG (sugars e5 d10 e5, PS)
target mRNA inhibition (HepG2, 0.12 µM): 22%

TGCACCTTGTATTAAATACT (sugars e5 d10 e5, PS)
target mRNA inhibition (HepG2, 2.5 µM): 76% and 65% | target mRNA inhibition (HepG2, 10 µM): 93% and 87%

TGCCAATGCCTAGGTCACAG (sugars e5 d10 e5, PS)
target mRNA inhibition (HepG2, 2.5 µM): 78% and 87% | target mRNA inhibition (HepG2, 10 µM): 87% and 91%

TGCTCAGTTCTTCCAACCAG (sugars e5 d10 e5, PS)
target mRNA inhibition (HepG2, 2.5 µM): 86% and 79% | target mRNA inhibition (HepG2, 10 µM): 93% and 94%

TGCTTATCCTTGAGGGTCTC (sugars e5 d10 e5, PS)
target mRNA inhibition (HepG2, 2.5 µM): 64% | target mRNA inhibition (HepG2, 10 µM): 84%

TGGAACTTCTTCTGGACCCA (sugars e5 d10 e5, PS)
target mRNA inhibition (HepG2, 0.12 µM): 43%

TGGACAAGTCCTGCCCATCT (sugars e5 d10 e5, PS)
target mRNA inhibition (HepG2, 0.12 µM): 72%

TGGACCCATCGGCCCCAGGA (sugars e5 d10 e5, PS)
target mRNA inhibition (HepG2, 0.12 µM): 52%

TGGAGTAGGGCACCAGCCCC (sugars e5 d10 e5, PS)
target mRNA inhibition (HepG2, 0.12 µM): 28%
